US20170042152A1, “SAFENED HERBICIDAL COMPOSITIONS COMPRISING PYRIDINE CARBOXYLIC ACIDS” (priority 2015, published 2017)

What was measured:
wild pansy (VIOTR) = assay: Greenhouse postemergence trial, weed efficacy; assay type: in vivo, Viola tricolor; conditions: cloquintocet-mexyl 0 g ai/ha, 20-22 d
Procedure: (§1) Seeds of the desired test plant species were planted in Sun Gro MetroMix® 306 planting mixture, which typically has a pH of 6.0 to 6.8 and an organic matter content of about 30 percent, in plastic pots with a surface area of 103.2 square centimeters (cm^2). When required to ensure good germination and healthy plants, a fungicide treatment and/or other chemical or physical treatment was applied. The plants were grown for 7-36 days (d) in a greenhouse with an approximate 14-hour (h) photoperiod which was maintained at about 18° C. during the day and 17° C. during the night. Nutrients and water were added on a regular basis and supplemental lighting was provided with overhead metal halide 1000-Watt lamps as necessary. The plants were employed for testing when they reached the second or third true leaf stage.
(§2) Weighed amounts of technical material were dissolved in a volume of 97:3 volume per volume (v/v) acetone/dimethyl sulfoxide (DMSO) to stock solutions. […] Compound requirements are based upon a 12 milliliter (mL) application volume at a rate of 187 liters per hectare (L/ha). Stock solutions of the safeners were prepared following the same procedure. Spray solutions of the safeners and experimental compound mixtures were prepared by adding the stock solutions to the appropriate amount of dilution solution to form a 12 mL spray solution in two-way combinations. Formulated compounds were applied to the plant material with an overhead Mandel track sprayer equipped with 8002E nozzles calibrated to deliver 187 L/ha over an application area of 0.503 square meters (m^2) at a spray height of 18 inches (43 centimeters (cm)) above average plant canopy. Control plants were sprayed in the same manner with the solvent blank.
(§3) The treated plants and control plants were placed in a greenhouse as described above and watered by sub-irrigation to prevent wash-off of the test compounds. After 20-22 d, the condition of the test plants as compared with that of the control plants was determined visually and scored on a scale of 0 to 100 percent where 0 corresponds to no injury and 100 corresponds to complete kill. Colby's equation was used to determine the herbicidal effects expected from the mixtures.

kochia (KCHSC) = assay: Greenhouse postemergence trial, weed efficacy; assay type: in vivo, Kochia scoparia; conditions: cloquintocet-mexyl 0 g ai/ha, 20-22 d
Procedure: as §1, §2, §3

wild buckwheat (POLCO) = assay: Greenhouse postemergence trial, weed efficacy; assay type: in vivo, Polygonum convulvus; conditions: cloquintocet-mexyl 0 g ai/ha, 20-22 d
Procedure: as §1, §2, §3

shepherd's purse (CAPBP) = assay: Greenhouse postemergence trial, weed efficacy; assay type: in vivo, Capsella bura-pastoris; conditions: herbicide 20 g ae/ha, cloquintocet-mexyl 0 g ai/ha, 20-22 d
Procedure: as §1, §2, §3

lambsquarters (CHEAL) [1] = assay: Small plot field trial, weed growth reduction; assay type: in vivo, Chenopodium album; conditions: 20 g ae/ha herbicide (triisopropanol amine salt), no safener, post-emergence, mean
lambsquarters (CHEAL) [2] = assay: Greenhouse postemergence trial, weed efficacy; assay type: in vivo, Chenopodium album; conditions: herbicide 20 g ae/ha, cloquintocet-mexyl 0 g ai/ha, 20-22 d
Procedure: as §1, §2, §3

spring barley (HORVS) = assay: Greenhouse postemergence safening trial, crop phytotoxicity; assay type: in vivo, Hordeum vulgare; conditions: cloquintocet-mexyl 0 g ai/ha, 20-22 d
Procedure: as §1, §2, §3

Canada thistle (CIRAR) = assay: Small plot field trial, weed growth reduction; assay type: in vivo, Cirsuim arvensis; conditions: 20 g ae/ha herbicide (triisopropanol amine salt), no safener, post-emergence, mean
Russian thistle (SASKR) = assay: Greenhouse postemergence trial, weed efficacy; assay type: in vivo, Salsola iberica; conditions: cloquintocet-mexyl 0 g ai/ha, 20-22 d
Procedure: as §1, §2, §3

[3] = tested on: bird's-eye speedwell (VERPE); assay: Greenhouse postemergence trial, weed efficacy; assay type: in vivo, Veronica persica; conditions: cloquintocet-mexyl 0 g ai/ha, 20-22 d
Procedure: as §1, §2, §3

wild mustard (SINAR) = assay: Greenhouse postemergence trial, weed efficacy; assay type: in vivo, Sinapis arvensis; conditions: herbicide 20 g ae/ha, cloquintocet-mexyl 0 g ai/ha, 20-22 d
Procedure: as §1, §2, §3

durum wheat (TRZDU) = assay: Small plot field trial, crop safety; assay type: in vivo, Triticum durum; conditions: 20 g ae/ha herbicide (triisopropanol amine salt), no safener, post-emergence, mean
Procedure: (§4) The triisopropanol amine salts of herbicides of formulas I-G-A, I-G-B and I-G-C were tested with and without cloquintocet-mexyl in small plot field trials across various ecozones to evaluate the crop safety of these compounds on […] cereals including winter wheat and durum wheat.
(§5) All herbicide treatments were applied post-emergence in the spring to early summer. Herbicides were applied with bicycle or tractor-mounted sprayers using carbon dioxide (CO2) as a propellant. The sprayers delivered a uniform spray pattern that provided thorough coverage of the foliage using a 150 or 200 L/ha spray volume. At the time of herbicide applications, winter wheat was at the two leaf growth stage and durum wheat was at the 2-3 leaf growth stage.
(§6) Phytotoxicity to cereal crops was visually assessed as percent overall injury, compared to an untreated control plot. The overall injury assessments were based on visual ratings of growth inhibition, chlorosis, and delay in maturity. At late ratings (54-57 days after application), percent visual seed head deformity and reduction in seed formation were also assessed. Trials were designed as randomized complete blocks with four replicates. In general, three to four replicates were assessed for each treatment.

winter wheat (TRZAW) [4] = assay: Small plot field trial, crop safety; assay type: in vivo, Triticum aestivum; conditions: 20 g ae/ha herbicide (triisopropanol amine salt), no safener, post-emergence, mean
Procedure: as §4, §5, §6

winter wheat (TRZAW) [5] = assay: Greenhouse postemergence safening trial, crop phytotoxicity; assay type: in vivo, Triticum aestivum; conditions: herbicide 20 g ae/ha, cloquintocet-mexyl 0 g ai/ha, 20-22 d
Procedure: as §1, §2, §3

spring wheat (TRZAS) = assay: as above; assay type: in vivo, Triticum aestivum; conditions: cloquintocet-mexyl 0 g ai/ha, 20-22 d
Procedure: as §1, §2, §3

CCc1nc(C(=O)O)c(Cl)c(N)c1F [formula I-G-A]
% visual injury VIOTR Ob (wild pansy (VIOTR); herbicide 4.375 g ae/ha): 3%
% visual injury VIOTR Ob (wild pansy (VIOTR); herbicide 8.75 g ae/ha): 20%
% visual injury VIOTR Ob (wild pansy (VIOTR); herbicide 17.5 g ae/ha): 37%
% visual injury VIOTR Ob (wild pansy (VIOTR); herbicide 35 g ae/ha): 65%
% visual injury VIOTR Ob (wild pansy (VIOTR); herbicide 70 g ae/ha): 82%
% visual injury KCHSC Ob (kochia (KCHSC); herbicide 4.375 g ae/ha): 13%
% visual injury KCHSC Ob (kochia (KCHSC); herbicide 8.75 g ae/ha): 23%
% visual injury KCHSC Ob (kochia (KCHSC); herbicide 17.5 g ae/ha): 32%
% visual injury KCHSC Ob (kochia (KCHSC); herbicide 35 g ae/ha): 67%
% visual injury KCHSC Ob (kochia (KCHSC); herbicide 70 g ae/ha): 67%
% visual injury POLCO Ob (wild buckwheat (POLCO); herbicide 4.375 g ae/ha): 0%
% visual injury POLCO Ob (wild buckwheat (POLCO); herbicide 8.75 g ae/ha): 49%
% visual injury POLCO Ob (wild buckwheat (POLCO); herbicide 17.5 g ae/ha): 40%
% visual injury POLCO Ob (wild buckwheat (POLCO); herbicide 35 g ae/ha): 75%
% visual injury POLCO Ob (wild buckwheat (POLCO); herbicide 70 g ae/ha): 96%
% visual injury CAPBP Ob (shepherd's purse (CAPBP)): 100%
Growth reduction of CHEAL, % of untreated (lambsquarters (CHEAL) [1]): 100 % of untreated
% visual injury CHEAL Ob (lambsquarters (CHEAL) [2]): 85%
% visual injury HORVS Ob (spring barley (HORVS); herbicide 4.375 g ae/ha): 0%
% visual injury HORVS Ob (spring barley (HORVS); herbicide 8.75 g ae/ha): 3%
% visual injury HORVS Ob (spring barley (HORVS); herbicide 17.5 g ae/ha): 10%
% visual injury HORVS Ob (spring barley (HORVS); herbicide 20 g ae/ha): 13%
% visual injury HORVS Ob (spring barley (HORVS); herbicide 35 g ae/ha): 37%
% visual injury HORVS Ob (spring barley (HORVS); herbicide 70 g ae/ha): 47%
Growth reduction of CIRAR, % of untreated (Canada thistle (CIRAR)): 95.5 % of untreated
% visual injury SASKR Ob (Russian thistle (SASKR); herbicide 4.375 g ae/ha): 67%
% visual injury SASKR Ob (Russian thistle (SASKR); herbicide 8.75 g ae/ha): 72%
% visual injury SASKR Ob (Russian thistle (SASKR); herbicide 17.5 g ae/ha): 75%
% visual injury SASKR Ob (Russian thistle (SASKR); herbicide 35 g ae/ha): 82%
% visual injury SASKR Ob (Russian thistle (SASKR); herbicide 70 g ae/ha): 82%
% visual injury VERPE Ob ([3]; herbicide 4.375 g ae/ha): 0%
% visual injury VERPE Ob ([3]; herbicide 8.75 g ae/ha): 7%
% visual injury VERPE Ob ([3]; herbicide 17.5 g ae/ha): 23%
% visual injury VERPE Ob ([3]; herbicide 35 g ae/ha): 50%
% visual injury VERPE Ob ([3]; herbicide 70 g ae/ha): 77%
% visual injury SINAR Ob (wild mustard (SINAR)): 97%
TRZDU Visual head deformation, % of untreated (durum wheat (TRZDU)): 4.3 % of untreated
TRZDU Visual injury, % of untreated (durum wheat (TRZDU)): 5.7 % of untreated
Instances of TRZAW grain reduction, % of untreated (winter wheat (TRZAW) [4]): 39.9 % of untreated
TRZAW grain formation reduction, % of untreated (winter wheat (TRZAW) [4]): 27.9 % of untreated
% visual injury TRZAW Ob (winter wheat (TRZAW) [5]): 25%
% visual injury TRZAS Ob (spring wheat (TRZAS); herbicide 4.375 g ae/ha): 0%
% visual injury TRZAS Ob (spring wheat (TRZAS); herbicide 8.75 g ae/ha): 7%
% visual injury TRZAS Ob (spring wheat (TRZAS); herbicide 17.5 g ae/ha): 33%
% visual injury TRZAS Ob (spring wheat (TRZAS); herbicide 35 g ae/ha): 60%
% visual injury TRZAS Ob (spring wheat (TRZAS); herbicide 70 g ae/ha): 70%
